Measurements published in article PMC3526713 (Journal of natural products, 2006).

Columns and labels:
[1] = target: Electric eel AChE (Electrophorus electricus, UniProt O42275)
[2] = target: horse serum butyrylcholinesterase (BChE) (Equus caballus, UniProt P81908)
horse serum butyrylcholinesterase (BChE), sequence (P81908 whole entry): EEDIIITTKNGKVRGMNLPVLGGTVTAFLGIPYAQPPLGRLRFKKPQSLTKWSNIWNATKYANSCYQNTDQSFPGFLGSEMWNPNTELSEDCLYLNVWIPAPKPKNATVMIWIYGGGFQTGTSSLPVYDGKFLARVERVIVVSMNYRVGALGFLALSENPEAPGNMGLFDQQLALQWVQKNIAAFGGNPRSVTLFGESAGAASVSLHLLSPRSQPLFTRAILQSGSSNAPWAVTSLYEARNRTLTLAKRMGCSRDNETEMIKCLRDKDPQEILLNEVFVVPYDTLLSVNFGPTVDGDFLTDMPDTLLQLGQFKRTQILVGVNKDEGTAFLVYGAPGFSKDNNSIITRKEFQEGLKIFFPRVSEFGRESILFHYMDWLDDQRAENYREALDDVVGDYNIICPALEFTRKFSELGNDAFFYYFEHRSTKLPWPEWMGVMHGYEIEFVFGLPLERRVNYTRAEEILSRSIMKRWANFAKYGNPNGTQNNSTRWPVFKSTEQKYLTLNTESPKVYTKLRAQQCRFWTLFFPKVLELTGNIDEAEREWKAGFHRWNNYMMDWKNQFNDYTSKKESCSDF

Electric eel AChE, sequence (O42275 24-633): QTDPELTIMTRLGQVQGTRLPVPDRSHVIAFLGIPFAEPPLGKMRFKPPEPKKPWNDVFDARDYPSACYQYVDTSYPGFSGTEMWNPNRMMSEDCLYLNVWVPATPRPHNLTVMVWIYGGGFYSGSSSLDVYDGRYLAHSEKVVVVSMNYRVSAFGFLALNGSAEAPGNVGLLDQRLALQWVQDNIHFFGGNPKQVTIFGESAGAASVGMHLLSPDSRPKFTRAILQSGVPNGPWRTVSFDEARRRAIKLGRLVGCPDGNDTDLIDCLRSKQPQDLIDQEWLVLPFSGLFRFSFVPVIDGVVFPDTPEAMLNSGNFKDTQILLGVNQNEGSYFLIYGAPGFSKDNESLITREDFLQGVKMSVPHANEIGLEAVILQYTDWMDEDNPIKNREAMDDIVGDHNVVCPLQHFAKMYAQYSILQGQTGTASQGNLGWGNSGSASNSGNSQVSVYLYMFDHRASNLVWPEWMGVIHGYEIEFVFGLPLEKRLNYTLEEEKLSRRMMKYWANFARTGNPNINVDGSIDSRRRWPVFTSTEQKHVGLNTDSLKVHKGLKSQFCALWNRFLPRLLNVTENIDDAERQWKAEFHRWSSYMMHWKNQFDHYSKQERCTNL

SMILES	Effect on AChE [1]	Effect on BChE [2]
COc1c(O)cc2c3c1-c1ccccc1C[C@H]3NCC2 [Compound 2, 1-methoxy-5,6,6a,7-tetrahydro-4H-dibenzo[de,g]quinolin-2-ol (6aR)]	effects on neither AChE nor BChE	effects on neither AChE nor BChE
COc1ccc2c(=O)oc3c(OC)cc(CCN(C)C)c4c(=O)oc1c2c34 [Compound 1, 1-(2-dimethylaminoethyl)-3,8-dimethoxychromeno[5,4,3-cde]chromene-5,10-dione]	–	no effect on BChE
